Usually IC50 stands for the point on the concentration scale where inhibition reaches its midpoint. High values mean weaker potency in that assay, low ones greater potency in that assay.

Among the data in the Kinase Knowledgebase extract (Sharma et al. 2016) are IC50 values, retold here.

In the assay the target is PIK3CD (Human) (UniProt O00329). As to the kind of experiment: Assessment of PIK3CD Kinase Activity (Scintillation Proximity Assay). For orientation: SPA uses beads or plates that emit light when radiolabelled molecules are held near them.
Chain of PIK3CD (Human) (O00329 whole entry, looked up): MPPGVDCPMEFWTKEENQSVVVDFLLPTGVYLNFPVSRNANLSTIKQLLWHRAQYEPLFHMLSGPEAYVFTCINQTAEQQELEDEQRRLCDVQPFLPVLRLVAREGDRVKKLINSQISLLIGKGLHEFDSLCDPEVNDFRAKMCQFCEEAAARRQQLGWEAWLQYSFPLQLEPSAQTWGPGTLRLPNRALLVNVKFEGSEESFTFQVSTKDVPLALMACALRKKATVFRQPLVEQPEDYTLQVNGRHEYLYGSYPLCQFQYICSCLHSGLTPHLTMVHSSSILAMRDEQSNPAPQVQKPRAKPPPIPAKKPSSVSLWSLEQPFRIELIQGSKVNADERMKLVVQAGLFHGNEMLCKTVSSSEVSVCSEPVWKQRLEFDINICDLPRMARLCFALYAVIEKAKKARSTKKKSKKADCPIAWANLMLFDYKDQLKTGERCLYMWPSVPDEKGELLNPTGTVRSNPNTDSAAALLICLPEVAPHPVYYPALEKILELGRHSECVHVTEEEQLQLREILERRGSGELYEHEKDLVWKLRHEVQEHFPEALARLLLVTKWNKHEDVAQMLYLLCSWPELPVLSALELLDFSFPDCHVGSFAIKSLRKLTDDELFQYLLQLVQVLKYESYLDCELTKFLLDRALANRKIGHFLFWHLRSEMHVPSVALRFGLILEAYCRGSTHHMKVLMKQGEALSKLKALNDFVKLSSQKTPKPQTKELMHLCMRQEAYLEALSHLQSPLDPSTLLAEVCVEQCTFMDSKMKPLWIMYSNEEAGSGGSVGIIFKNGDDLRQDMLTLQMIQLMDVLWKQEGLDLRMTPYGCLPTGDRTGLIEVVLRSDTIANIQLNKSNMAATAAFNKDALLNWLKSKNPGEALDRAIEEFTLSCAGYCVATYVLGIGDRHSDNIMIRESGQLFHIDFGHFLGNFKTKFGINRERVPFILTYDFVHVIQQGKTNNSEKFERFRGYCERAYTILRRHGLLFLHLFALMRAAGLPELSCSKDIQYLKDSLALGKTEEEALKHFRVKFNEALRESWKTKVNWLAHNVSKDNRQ
In the case of `CCOc1c(C(C)n2nc(C)c3c(N)ncnc32)cc(Cl)c(C#N)c1C1CN(C(=O)NC(C)(C)C)C1` (centres undefined), the IC50 is not above 10 nM. The value for `CCNC(=O)c1c(C)c(Cl)cc(C(C)n2nc(-c3ccc4nc(N)sc4c3)c3c(N)ncnc32)c1OCC` (centres undefined) was not above 10 nM; that for `COc1c(C(C)n2nc(C)c3c(N)ncnc32)cc(Cl)c(C)c1CCC(=O)N(C)C` (centres undefined) was not above 10 nM; that for `COc1c(C(C)n2nc(C)c3c(N)ncnc32)cc(Cl)c(C)c1C1CN(C2CCOCC2)C1` (centres undefined) was not above 10 nM. The value for `CCOc1c(C(C)n2nc(C)c3c(N)ncnc32)cc(Cl)c(C)c1-c1ccnc(C(=O)N(C)C)c1` (centres undefined) was not above 10 nM; that for `CCOc1c(C(C)n2nc(C)c3c(N)ncnc32)cc(Cl)c(C)c1C1CN(C[C@H](C)O)C1` (some centres undefined) was not above 10 nM; that for `COc1c(C(C)n2nc(C)c3c(N)ncnc32)cc(Cl)c(C)c1-c1cnn(C(C)C(=O)N(C)C)c1` (centres undefined) was not above 10 nM. The value for `CCOc1c(C(C)n2nc(C)c3c(N)ncnc32)cc(Cl)c(F)c1C1CN(CC(F)F)C1` (centres undefined) was not above 10 nM. On to `CCOc1c(C(C)n2nc(C)c3c(N)ncnc32)cc(Cl)c(F)c1C1CN(CCO)C1` (centres undefined), for which the IC50 was not above 10 nM. Then `CCOc1c(C(C)n2nc(C)c3c(N)ncnc32)cc(C)c(C#N)c1C1CN(CCO)C1` (centres undefined), with not above 10 nM; and `CCN1CC(c2c(Cl)c(Cl)cc(C(C)n3nc(C)c4c(N)ncnc43)c2OC)C1` (centres undefined), with not above 10 nM; and `COc1c(C(C)n2nc(C(F)F)c3c(N)ncnc32)cc(Cl)c(F)c1C1CN(CCO)C1` (centres undefined), with not above 10 nM. The value for `COc1c(C(C)n2nc(C)c3c(N)ncnc32)cc(Cl)c(C#N)c1C1CNC1` (centres undefined) was not above 10 nM; that for `COc1c(C(C)n2nc(-c3cn[nH]c3)c3c(N)ncnc32)cc(Cl)c(C)c1C1CN(CC#N)C1` (centres undefined) was not above 10 nM. The value for `CCOc1c(C(C)n2nc(C#C[C@@H](C)O)c3c(N)ncnc32)cc(Cl)c(C)c1-c1ccc(C(=O)N(C)C)nc1` (some centres undefined) was not above 10 nM; that for `COc1c(C(C)n2nc(C)c3c(N)ncnc32)cc(Cl)c(C)c1C1CN([C@@H](C)C(O)N(C)C)C1` (some centres undefined) was not above 10 nM; that for `COc1c(C(C)n2nc(C)c3c(N)ncnc32)cc(Cl)c(C)c1C1CN(C(C)C#N)C1` (centres undefined) was not above 10 nM. Turning to `COc1c(C(C)n2nc(C)c3c(N)ncnc32)cc(Cl)c(C)c1C1CN(C(=O)C2(O)CC2)C1` (centres undefined), the IC50 is not above 10 nM. The value for `COc1c(C(C)n2nc(C)c3c(N)ncnc32)cc(Cl)c(F)c1C1CN(CCO)C1` (centres undefined) was not above 10 nM; that for `CCOc1c(C(C)n2nc(C(F)F)c3c(N)ncnc32)cc(Cl)c(F)c1C1CN(CCO)C1` (centres undefined) was not above 10 nM.

`CCOc1c(C(C)n2nc(C)c3c(N)ncnc32)cc(Cl)c(C#N)c1-c1cncc(C(=O)N(C)C)c1` (centres undefined) registered a half-inhibitory concentration (IC50) not above 10 nM. The value for `COc1c(C(C)n2nc(C)c3c(N)ncnc32)cc(Cl)c(C)c1C1CN(CC(O)C(F)(F)F)C1` (centres undefined) was not above 10 nM; that for `CCOc1c(C(C)n2nc(C)c3c(N)ncnc32)cc(Cl)c(F)c1C1CNC(=O)O1` (centres undefined) was not above 10 nM. Compound `COc1c(C(C)n2ncc3c(N)ncnc32)cc(Cl)c(C)c1-c1ccnc(C(=O)NCCO)c1` (centres undefined) displayed an IC50 of 50 to 200 nM.

For `COc1c(C(C)n2nc(C)c3c(N)ncnc32)cc(Cl)c(C#N)c1C1CN(C(=O)NC(C)(C)C)C1` (centres undefined), the half-maximal inhibitory concentration (IC50) is not above 10 nM. Then `CCOc1c(C(C)n2nc(C)c3c(N)ncnc32)cc(Cl)c(C#N)c1N1CC(COC)C1` (centres undefined), with not above 10 nM. As to `COc1c(C(C)n2nc(C)c3c(N)ncnc32)cc(Cl)c(C#N)c1C1CN(CC(C)(C)O)C1` (centres undefined), the IC50 was not above 10 nM.

On to `CCOc1c(C(C)n2nc(C)c3c(N)ncnc32)cc(Cl)c(C)c1-c1cncc(C(=O)N(C)C)c1` (centres undefined), for which the concentration for half-maximal inhibition (IC50) was not above 10 nM. Then `COc1c(C(C)n2nc(C)c3c(N)ncnc32)cc(Cl)c(C)c1-c1cnc(N)nc1` (centres undefined), with not above 10 nM; and `COc1c(C(C)n2nc(C)c3c(N)ncnc32)cc(Cl)c(Cl)c1C1CN(CC(C)(C)O)C1` (centres undefined), with not above 10 nM; and `CCOc1c(C(C)n2nc(C)c3c(N)ncnc32)cc(Cl)c(C#N)c1C1CN(C(C)(C)CO)C1` (centres undefined), with not above 10 nM. Then `CCOc1c(C(C)n2nc(C)c3c(N)ncnc32)cc(Cl)c(C#N)c1C1CN(C(=O)C(C)(C)C)C1` (centres undefined), with not above 10 nM; and `CNC(=O)N1CC(c2c(C)c(Cl)cc(C(C)n3nc(C)c4c(N)ncnc43)c2OC)C1` (centres undefined), with not above 10 nM; and `CCOc1c(C(C)n2nc(C)c3c(N)ncnc32)cc(Cl)c(C#N)c1C1CN(S(=O)(=O)C(C)C)C1` (centres undefined), with not above 10 nM.

Take `COc1c(C(C)n2nc(C(F)F)c3c(N)ncnc32)cc(Cl)c(F)c1C1CN(C[C@H](C)O)C1` (some centres undefined): the 50% inhibitory concentration (IC50) is not above 10 nM. `CCOc1c(C(C)n2nc(C)c3c(N)ncnc32)cc(Cl)c(C#N)c1-c1ccc(-c2nnn(C)n2)nc1` (centres undefined): the 50% inhibitory concentration (IC50) is not above 10 nM. Then `CCOc1c(C(C)n2nc(C)c3c(N)ncnc32)cc(Cl)c(C#N)c1C1CN(C2CCOCC2)C1` (centres undefined), with not above 10 nM; and `CCOc1c(C(C)n2nc(C)c3c(N)ncnc32)cc(Cl)c(C)c1C#N` (centres undefined), with not above 10 nM. `CCOc1c(C(C)n2nc(C)c3c(N)ncnc32)cc(Cl)c(C)c1C1CN(C[C@@H](C)O)C1` (some centres undefined) displayed an IC50 not above 10 nM.
